Data as given in US11628168B2, “Medical application of pyrimidine sulfonamides derivatives” (CHINESE PLA GENERAL HOSPITAL, priority 2018, dated 2023).

What was measured:
Format in all cases: in vivo, SD rats
[1] = system: right ventricular hypertrophy of rats in low-pressure low-oxygen cabin; experiment: Rat right ventricular hypertrophy index, low-pressure low-oxygen model; conditions: for Full heart / RV (weight of the right ventricles) / RV/(LV + IS) right ventricular hypertrophy index: x±s
Protocol: (§1) 40 healthy SD rats (180-220 g, male) are purchased from Beijing Vital River Laboratory Animal Technology Co. Ltd, belong to the SPF grade and have the license number of SCXK(Jing)2016-0006. The healthy SD rats are fed in a low-pressure oxygen cabin, and regularly fed with a complete nutritional feed under the conditions of the temperature of 22 to 25° C. and the humidity of 30% to 50%.
(§2) Solvent configuration: 5% of DMSO and 95% of normal saline with 10% of HP-β-CD, and pH=9.
(§3) An experimental group A: a low-pressure low-oxygen cabin, and intragastric administration of sc0062 (15 mg/kg) as well as a solvent
(§4) An experimental group B: a low-pressure low-oxygen cabin, and intragastric administration of sc0062 (30 mg/kg) as well as a solvent
(§5) 40 rats are randomly divided into four groups, each group includes 10 rats, 3 groups are placed into a low-pressure low-oxygen cabin, the pressure of the oxygen cabin is regulated to 380 mmHg, a high altitude environment with an altitude of 5,500 meters is simulated, the low-pressure low-oxygen cabin is opened for 1 hour every day so as to add foods and water for animals and carry out corresponding medicine treatment, and meanwhile, the environment where the rats are positioned are kept alternate day and night according to a ratio of 12 h:12 h. After 3 groups of rats are in the oxygen-poor environment for 14 days, intragastric administration is respectively carried out on the 3 groups of rats, the solvent (the model group), the sc0062 (15 mg/kg) and the solvent (the experimental group A) and the sc0062 (30 mg/kg) and the solvent (the experimental group B) are respectively applied to the 3 groups of rats, and the operation is continued for 14 days. Rats in the fourth group (the blank control group) are placed in the same room to be fed in the normal-pressure normal-oxygen environment.
(§6) 3% pentobarbital sodium (0.2 mL/100 g) is intraperitoneally injected to anesthetize the rats, ultrasonic detection is carried out, and the following ultrasonic data is recorded: PAT/PET (pulmonary arterial blood flow acceleration time/right ventricular […]); right ventricular ejection fraction EF; a right ventricular fractional shortening FS; and tricuspid annular plane systolic excursion TAPSE. The anesthetize rats are fixed on an operating table in a supine position mode, tracheotomy is carried out, a breathing machine is connected, and thoracotomy is carried out to expose the hearts. A catheter is inserted into each right ventricle, and the right ventricular systolic pressure is recorded. Then each catheter is slowly pushed forwards, can reach a corresponding pulmonary artery through a corresponding right ventricular outflow tract, the pressure waveform of a monitor is observed, and the mean pulmonary arterial pressure mPAP is recorded. Blood is collected and the rats are executed. The hearts and the lung tissue are taken out, the atrial tissue and the root of the main artery are removed, left and right ventricles are separated, bloodstain is washed out in PBS, moisture is sucked up by filter paper, and the weight of the right ventricles (RV) and the weight of the left ventricles and the […] (LV+IS) are respectively weighed. Calculation is carried out according to the following formula: right ventricular hypertrophy index=RV/(LV+IS).
(§7) All the data is represented by x±s, comparison among the groups is single factor analysis of variance, when P<0.05, it represents that the difference has a statistical significance, and statistical treatment is carried out by adopting an SPSS 22.0 software package.

[2] = system: right ventricular function of rats in low-pressure low-oxygen cabin; experiment: Echocardiography of rats in low-pressure low-oxygen cabin (simulated altitude 5,500 m); conditions: x±s
Protocol: as §1, §2, §3, §4, §5, §6, §7

[3] = system: pulmonary arterial hypertension of model rats; experiment: Rat haemodynamics: mean pulmonary arterial pressure by right heart catheter, low-pressure low-oxygen model; conditions: for mPVP: x±s
Protocol: as §1, §2, §3, §4
40 rats are randomly divided into four groups, each group includes 10 rats, 3 groups are placed into a low-pressure low-oxygen cabin, the pressure of the oxygen cabin is regulated to 380 mmHg, a high altitude environment with an altitude of 5,500 meters is simulated, the low-pressure low-oxygen cabin is opened for 1 hour every day so as to add foods and water for animals and carry out corresponding medicine treatment, and meanwhile, the environment where the rats are positioned are kept alternate day and night according to a ratio of 12 h:12 h. […]
3% pentobarbital sodium (0.2 mL/100 g) is intraperitoneally injected to anesthetize the rats, ultrasonic detection is carried out, and the following ultrasonic data is recorded: PAT/PET (pulmonary arterial blood flow acceleration time/right ventricular […]); right ventricular ejection fraction EF; a right ventricular fractional shortening FS; and tricuspid annular plane systolic excursion TAPSE. […] A catheter is inserted into each right ventricle, and the right ventricular systolic pressure is recorded. Then each catheter is slowly pushed forwards, can reach a corresponding pulmonary artery through a corresponding right ventricular outflow tract, the pressure waveform of a monitor is observed, and the mean pulmonary arterial pressure mPAP is recorded. […]

[4] = 15 mg/kg intragastric for 14 days after 14 days hypoxia (380 mmHg)
[5] = 30 mg/kg intragastric for 14 days after 14 days hypoxia (380 mmHg)

COCCNS(=O)(=O)Nc1ncnc(OCCOc2ncc(Br)cn2)c1-c1ccc2c(c1)OCO2 [sc0062]
Full heart [1, 4]: 1.47 ± 0.24
RV (weight of the right ventricles) [1, 4]: 0.56 ± 0.09
RV/(LV + IS) right ventricular hypertrophy index [1, 4]: 0.38 ± 0.02
Full heart [1, 5]: 1.30 ± 0.21
RV (weight of the right ventricles) [1, 5]: 0.48 ± 0.11
RV/(LV + IS) right ventricular hypertrophy index [1, 5]: 0.36 ± 0.02
right ventricular hypertrophy index compared with the model group ([1]; experimental groups A and B (15 and 30 mg/kg), p<0.05): reduced
PAT/PET [2, 4]: 0.39 ± 0.07
Right ventricular EF [2, 4]: 67.25 ± 13.01
Right ventricular FS [2, 4]: 37.02 ± 10.63
TAPSE [2, 4]: 2.05 ± 0.29
PAT/PET [2, 5]: 0.40 ± 0.07
Right ventricular EF [2, 5]: 71.32 ± 9.35
Right ventricular FS [2, 5]: 39.76 ± 7.24
TAPSE [2, 5]: 1.93 ± 0.44
mPVP [3, 4]: 31.39 ± 3.90
mPVP [3, 5]: 26.91 ± 4.35
mean pulmonary arterial pressure compared with the model group ([3]; experimental groups A and B (15 and 30 mg/kg), p<0.01): significantly raised
